The text below walks through data of US20240307547A1, “NOVEL COMPOUNDS WHICH BIND TO CEREBLON, AND METHODS OF USE THEREOF” (Captor Therapeutics S.A., priority 2020, published 2024).

The Ki is the equilibrium dissociation constant of an inhibitor or competing ligand from its target.

The first experiment has as its system SALL4. As to the kind of experiment: SALL4 degradation assay, Kelly cell line (western blot densitometry). Format: cell-based. Conditions: Kelly cells, after 24 h, at 1 μM. On the procedure:
Kelly cells were maintained in RPMI-1640 medium, supplemented with penicillin/streptomycin and 10% Fetal Bovine Serum (FBS). Cells were seeded on 6-well plates, and the compounds to be tested were added at the desired concentration range. Final DMSO concentration was 0.25%. After 24 h incubation (37° C., 5% CO2), cells were washed and cell lysates were prepared using RIPA lysis buffer. The amount of protein was determined via BCA assay, and the appropriate quantity was then loaded on the precast gel for the protein separation. After primary and secondary antibody staining, the membranes were washed and signals developed. The densitometry analysis was implemented to obtain the numeric values used later in the protein level evaluation process.
Densitometry values are normalized to the loading control (β-ACTIN) and presented as % of DMSO control in Table 2, below, using the following labels: • ≤25% for 0-25% of SALL4 protein reduction, • >25% for 26-74% of SALL4 protein reduction, • ≥75% for 75-100% of SALL4 protein reduction.
In general terms: In western blotting, separated proteins are transferred to a membrane and probed.
For `Cc1nc2cccc(N)c2c(=O)n1C1CCC(=O)NC1=O` (centres unmarked) [CC-122], the “% of SALL4 protein reduction” value is listed as ≥75% (≥75% for 75-100% of SALL4 protein reduction).

The experiment is the same for the next values; noted with them: Kelly cells, after 24 h, at 10 μM.
As to `Cc1nc2cccc(N)c2c(=O)n1C1CCC(=O)NC1=O` (centres unmarked) [CC-122], the “% of SALL4 protein reduction” value is given as ≥75% (≥75% for 75-100% of SALL4 protein reduction).

The experiment is the same for the next values; noted with them: Kelly cells, after 24 h, at 20 μM.
With `Cc1nc2cccc(N)c2c(=O)n1C1CCC(=O)NC1=O` (centres unmarked) [CC-122], the “% of SALL4 protein reduction” value is on record as ≥75% (≥75% for 75-100% of SALL4 protein reduction).

The target of the next experiment is CRBN-DDB1 protein complex (Homo sapiens, UniProt Q96SW2). As to the kind of experiment: Fluorescence polarization (FP) assay, displacement of Cy5-labelled thalidomide. Also: 25 nM CRBN-DDB1. Conditions: read-out: CRBN binding Ki. On the procedure: The test solution was added to a 384-well assay plate.
Sequence of CRBN-DDB1 protein complex (Q96SW2 whole entry): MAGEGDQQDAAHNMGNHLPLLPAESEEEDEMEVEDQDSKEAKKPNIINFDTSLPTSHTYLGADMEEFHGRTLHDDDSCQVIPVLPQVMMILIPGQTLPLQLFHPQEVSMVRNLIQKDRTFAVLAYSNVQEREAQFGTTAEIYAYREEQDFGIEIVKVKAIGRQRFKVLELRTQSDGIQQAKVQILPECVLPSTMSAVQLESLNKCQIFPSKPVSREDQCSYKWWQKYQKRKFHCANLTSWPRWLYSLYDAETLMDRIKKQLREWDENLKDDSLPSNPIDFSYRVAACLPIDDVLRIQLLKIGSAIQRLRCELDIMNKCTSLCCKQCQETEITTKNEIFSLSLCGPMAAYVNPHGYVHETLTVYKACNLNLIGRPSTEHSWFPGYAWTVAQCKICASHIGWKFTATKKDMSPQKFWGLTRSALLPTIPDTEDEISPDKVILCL
Sequence of CRBN-DDB1 protein complex (Q16531 whole entry partner): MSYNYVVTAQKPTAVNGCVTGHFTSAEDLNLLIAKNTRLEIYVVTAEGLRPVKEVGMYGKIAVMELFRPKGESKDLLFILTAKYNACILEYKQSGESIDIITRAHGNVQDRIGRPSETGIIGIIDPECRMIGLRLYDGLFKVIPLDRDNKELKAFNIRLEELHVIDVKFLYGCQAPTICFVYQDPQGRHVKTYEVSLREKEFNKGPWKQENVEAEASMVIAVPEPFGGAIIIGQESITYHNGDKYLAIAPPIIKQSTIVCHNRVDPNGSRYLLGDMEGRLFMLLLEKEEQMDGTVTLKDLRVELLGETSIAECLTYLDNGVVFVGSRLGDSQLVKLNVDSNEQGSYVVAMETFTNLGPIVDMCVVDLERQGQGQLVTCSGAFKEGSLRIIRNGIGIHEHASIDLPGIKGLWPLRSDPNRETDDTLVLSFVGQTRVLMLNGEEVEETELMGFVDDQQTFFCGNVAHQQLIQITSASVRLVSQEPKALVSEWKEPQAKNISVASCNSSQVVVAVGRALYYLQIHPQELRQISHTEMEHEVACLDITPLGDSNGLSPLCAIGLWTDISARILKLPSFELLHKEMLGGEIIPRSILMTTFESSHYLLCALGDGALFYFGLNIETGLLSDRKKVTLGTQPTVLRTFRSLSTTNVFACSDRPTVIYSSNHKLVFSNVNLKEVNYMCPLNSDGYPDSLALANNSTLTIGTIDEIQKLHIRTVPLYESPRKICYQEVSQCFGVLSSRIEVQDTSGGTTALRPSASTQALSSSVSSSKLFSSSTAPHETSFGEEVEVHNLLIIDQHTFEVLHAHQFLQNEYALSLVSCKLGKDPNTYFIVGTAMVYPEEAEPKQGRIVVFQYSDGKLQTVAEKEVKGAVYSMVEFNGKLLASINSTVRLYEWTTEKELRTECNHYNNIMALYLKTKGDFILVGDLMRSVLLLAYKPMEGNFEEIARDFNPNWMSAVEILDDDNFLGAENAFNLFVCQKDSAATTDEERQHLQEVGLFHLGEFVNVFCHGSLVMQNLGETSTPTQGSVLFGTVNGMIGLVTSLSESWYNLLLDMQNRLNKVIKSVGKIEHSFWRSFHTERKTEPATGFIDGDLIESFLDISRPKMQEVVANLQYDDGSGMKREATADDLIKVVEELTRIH
The plate was spun-down (1 min, 1000 rpm, 22° C.) and then shaken using a VibroTurbulator for 10 min at room temperature (20-25° C.), with the frequency set to level 3. The assay plate with protein and the tracer was incubated for 60 min at room temperature (20-25° C.) prior to read-out with a plate reader.
The FP experiment was carried out with various concentrations of the test compounds in order to measure Ki values.
Background: In fluorescence polarisation assays a small probe gives low polarisation when free and higher when bound to something large.
With `Cc1nc2cccc([N+](=O)[O-])c2cc1C1CCC(=O)NC1=O` (centres unmarked) [Compound 2, 3-(2-methyl-5-nitroquinolin-3-yl)piperidine-2,6-dione], the inhibitory constant (Ki) is 1000 to 5000 nM. The same measure, in the same setting: then `Cc1nc2cccc(F)c2cc1C1CCC(=O)NC1=O` (centres unmarked) [Compound 3, 3-(5-fluoro-2-methylquinolin-3-yl)piperidine-2,6-dione], with 1000 to 5000 nM. Turning to `Cc1nc2c(cnn2C)cc1C1CCC(=O)NC1=O` (centres unmarked) [Compound 4, 3-(1,6-dimethyl-1H-pyrazolo[3,4-b]pyridin-5-yl)piperidine-2,6-dione], the inhibitory constant (Ki) was 1000 to 5000 nM. Turning to `Cc1nc2ccc([N+](=O)[O-])cc2cc1C1CCC(=O)NC1=O` (centres unmarked) [Compound 5, 3-(2-methyl-6-nitroquinolin-3-yl)piperidine-2,6-dione], the inhibition constant (Ki) was in the range of 5000 to 10000 nM. Consider `Cc1nc2cc([N+](=O)[O-])ccc2cc1C1CCC(=O)NC1=O` (centres unmarked) [Compound 6, 3-(2-methyl-7-nitroquinolin-3-yl)piperidine-2,6-dione], for which the Ki fell in the range of 5000 to 10000 nM. As to `Cc1nc2c([N+](=O)[O-])cccc2cc1C1CCC(=O)NC1=O` (centres unmarked) [Compound 7, 3-(2-methyl-8-nitroquinolin-3-yl)piperidine-2,6-dione], the inhibition constant Ki was in the range of 1000 to 5000 nM. For `Cc1nc2cc(N)ccc2cc1C1CCC(=O)NC1=O` (centres unmarked) [Compound 8, 3-(7-amino-2-methylquinolin-3-yl)piperidine-2,6-dione], the Ki is less than 1000 nM. Same read-out and setting: then `Cc1nc2cc(C(=O)N[C@@H](C)C3CCCCC3)ccc2cc1C1CCC(=O)NC1=O` (stereo partly drawn) [Compound 9, N—((S)-1-cyclohexylethyl)-3-(2,6-dioxopiperidin-3-yl)-2-methylquinoline-7-carboxamide], with 1000 to 5000 nM; and `Cc1nc2c(N)cccc2cc1C1CCC(=O)NC1=O` (centres unmarked) [Compound 10, 3-(8-amino-2-methylquinolin-3-yl)piperidine-2,6-dione], with less than 1000 nM; and `Cc1nc2ccc(N)cc2cc1C1CCC(=O)NC1=O` (centres unmarked) [Compound 11, 3-(6-amino-2-methylquinolin-3-yl)piperidine-2,6-dione], with less than 1000 nM. Turning to `O=C1CCC(c2cnc3cccc([N+](=O)[O-])c3c2)C(=O)N1` (centres unmarked) [Compound 12, 3-(5-nitroquinolin-3-yl)piperidine-2,6-dione], the inhibition constant (Ki) is 1000 to 5000 nM. In the case of `Cc1nc2ccccc2cc1C1CCC(=O)NC1=O` (centres unmarked) [Compound 13, 3-(2-methylquinolin-3-yl)piperidine-2,6-dione], the Ki was 1000 to 5000 nM. Same read-out and setting: then `Nc1cccc2ncc(C3CCC(=O)NC3=O)cc12` (centres unmarked) [Compound 14, 3-(5-aminoquinolin-3-yl)piperidine-2,6-dione], with less than 1000 nM; and `Cc1ccc(NC(=O)NCc2ccc3cc(C4CCC(=O)NC4=O)c(C)nc3c2)cc1Cl` (centres unmarked) [Compound 15, 1-(3-chloro-4-methylphenyl)-3-{[3-(2,6-dioxopiperidin-3-yl)-2-methylquinolin-7-yl]methyl}urea], with less than 1000 nM; and `Cc1nc2cc(CNC(=O)C(F)(F)c3ccc(Cl)cc3)ccc2cc1C1CCC(=O)NC1=O` (centres unmarked) [Compound 16, 2-(4-chlorophenyl)-N-{[3-(2,6-dioxopiperidin-3-yl)-2-methylquinolin-7-yl]methyl}-2,2-difluoroacetamide], with less than 1000 nM. On the same count and under the same terms, then `Cc1nc2cccc(NS(=O)(=O)c3ccccc3OC(F)(F)F)c2cc1C1CCC(=O)NC1=O` (centres unmarked) [Compound 17, N-(3-(2,6-dioxopiperidin-3-yl)-2-methylquinolin-5-yl)-2-(trifluoromethoxy)benzenesulfonamide], with less than 1000 nM. The same measure, in the same setting: then `Cc1nc2ccc(NS(=O)(=O)c3ccccc3OC(F)(F)F)cc2cc1C1CCC(=O)NC1=O` (centres unmarked) [Compound 18, N-(3-(2,6-dioxopiperidin-3-yl)-2-methylquinolin-6-yl)-2-(trifluoromethoxy)benzenesulfonamide], with less than 1000 nM; and `Cc1nc2cc(NS(=O)(=O)c3ccccc3OC(F)(F)F)ccc2cc1C1CCC(=O)NC1=O` (centres unmarked) [Compound 19, N-(3-(2,6-dioxopiperidin-3-yl)-2-methylquinolin-7-yl)-2-(trifluoromethoxy)benzenesulfonamide], with less than 1000 nM. For the compound `Cc1nc2c(NS(=O)(=O)c3ccccc3OC(F)(F)F)cccc2cc1C1CCC(=O)NC1=O` (centres unmarked) [Compound 20, N-(3-(2,6-dioxopiperidin-3-yl)-2-methylquinolin-8-yl)-2-(trifluoromethoxy)benzenesulfonamide], the Ki was in the range of 1000 to 5000 nM. On the same count and under the same terms, then `Cc1nc2c(Cl)cccc2cc1C1CCC(=O)NC1=O` (centres unmarked) [Compound 21, 3-(8-chloro-2-methylquinolin-3-yl)piperidine-2,6-dione], with 1000 to 5000 nM.
